This note sets out measurements from patent US8372832B2 (priority 2006, dated 2013).

This experiment concerns the target α7-subtype of nicotinic receptors (Rattus norvegicus, UniProt Q05941). In words: biochemical. It counts as binding.

Sequence of α7-subtype of nicotinic receptors (Q05941 23-502): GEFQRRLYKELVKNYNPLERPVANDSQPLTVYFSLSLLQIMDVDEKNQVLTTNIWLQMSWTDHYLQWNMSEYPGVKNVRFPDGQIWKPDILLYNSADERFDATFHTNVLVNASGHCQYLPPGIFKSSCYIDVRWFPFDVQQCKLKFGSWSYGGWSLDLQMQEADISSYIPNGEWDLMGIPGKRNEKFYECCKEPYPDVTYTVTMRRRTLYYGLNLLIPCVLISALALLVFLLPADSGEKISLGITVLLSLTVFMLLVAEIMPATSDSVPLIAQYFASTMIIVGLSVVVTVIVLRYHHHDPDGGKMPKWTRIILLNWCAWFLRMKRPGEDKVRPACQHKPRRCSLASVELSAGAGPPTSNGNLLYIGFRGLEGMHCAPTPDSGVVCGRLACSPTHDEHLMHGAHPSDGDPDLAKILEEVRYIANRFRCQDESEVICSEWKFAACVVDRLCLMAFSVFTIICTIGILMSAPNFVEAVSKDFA

One may read the IC50 as the concentration at which inhibition is half-maximal. Lower therefore signals higher potency. For the compound `Brc1ccc(-c2nnc(N3CCN4CCC3CC4)o2)o1` [Compound A1, 4-[5-(5-Bromo-furan-2-yl)-[1,3,4]oxadiazol-2-yl]-1,4-diaza-bicyclo[3.2.2]nonane], the IC50 was under 10 nM.
